Key:
Format in all cases: binding, murine
[1] = target: T1, GST-GraspFL (GST-Grasp55 full length) (Mus musculus, UniProt Q99JX3); assay: HTRF competition with GST-Grasp55 full length; conditions: biotinylated JAM-C peptide
T1 construct: GST-GraspFL (GST-Grasp55 full length); made in house; host or cells: bacteria Rosetta
Method: (§1) To refine and extend the results obtained by yeast two hybrid, an Homogenous Time Resolved Fluorescence (HTRF) assay have been set-up to measure interactions of various peptides with recombinant GST proteins corresponding to different regions of Grasp55.
Briefly, the technique consisted in incubating 18 h at 4° C. the biotinylated-Cterminal peptides (SEQ ID NO: 26 to 34) at the concentration of 1.9*10^−7M with the GST-fusion protein, the terbium-coupled anti-GST antibody (8*10^−10M each) and the d2-coupled streptavidin (4*10^−8M) (both from Cisbio), in 0.1 mL of Hepes 0.05M, NaCl 0.15M BSA 0.1% pH 7.2. In some experiments, competing peptide or chemicals were added to the incubation mix at the indicated concentration. After incubation, microtiter plates (Costar #3693) were red using PolarScan Omega (BMG Labtech) equipped for HTRF measurements. Upon excitation at 320 nm, a 620 nm fluorescence emission is produced by the donor terbium that in turn excites a 665 nm light emission by a Streptavidin-d2 (acceptor) bound to the Biotinylated interacting Peptide if the latter is interacting with the donor. The […] R ratio is obtained and a Delta F is computed as: [(Rsample−RNSB)/RNSB]*100 where RNSB is the Non Specific Background signal determined in incubates where the GST-fusion protein was omitted. […]

[2] = target: T2, GST-PDZI′ (Grasp55 residues 1 to 107) (Mus musculus, UniProt Q99JX3); assay: HTRF measurement of interaction of biotinylated C-terminal peptides with GST-PDZI′; conditions: biotinylated JAM-C peptide, GST-PDZI′
T2 construct: GST fusion proteins encompassing residues 1 to 107; made in house; host or cells: bacteria Rosetta
Method: as §1
(§2) Briefly, the technique consisted in incubating 18 h at 4° C. the biotinylated-Cterminal peptides (SEQ ID NO: 26 to 34) at the concentration of 1.9*10^−7M with the GST-fusion protein, the terbium-coupled anti-GST antibody (8*10^−10M each) and the d2-coupled streptavidin (4*10^−8M) (both from Cisbio), in 0.1 mL of Hepes 0.05M, NaCl 0.15M BSA 0.1% pH 7.2. In some experiments, competing peptide or chemicals were added to the incubation mix at the indicated concentration. After incubation, microtiter plates (Costar #3693) were red using PolarScan Omega (BMG Labtech) equipped for HTRF measurements. Upon excitation at 320 nm, a 620 nm fluorescence emission is produced by the donor terbium that in turn excites a 665 nm light emission by a Streptavidin-d2 (acceptor) bound to the Biotinylated interacting Peptide if the latter is interacting with the donor. The […] R ratio is obtained and a Delta F is computed as: [(Rsample−RNSB)/RNSB]*100 where RNSB is the Non Specific Background signal determined in incubates where the GST-fusion protein was omitted.
(§3) Having shown that HTRF measurement of interaction is a reliable technology to identify inhibitors of interaction. A screen of a chemical compound library provided by MRCt has been initiated. The screening consisted in the same HTRF technique used in Example 7 except that compounds from the library were added in the incubation mix at the final concentration of 6.6×10^−5M. […] Since such a result could be either due to a specific inhibition of the JAM-C peptide interaction to the recombinant Grasp55 PDZ domains or to a non-specific inhibition of the FRET signal between donor and acceptor in HTRF technology, the twenty selected compounds have been further tested. Indeed, compounds could potentially interfere with the binding of the anti-GST antibody terbium-labeled to the GST of the fusion protein, the binding of Streptavidin-d2 to the biotinylated peptide or promote strong interference at 320, […] or 665 nm. Thus, the putative hits obtained were screened for non-specific inhibition. To this end, the GST-PDZI′+II′ recombinant protein was biotinylated using Sulfo-NHS Biotin according to manufacturer instructions (Pierce). This allows designing an HTRF assay in which the d2-coupled streptavidin (acceptor) and the terbium-coupled anti-GST antibody are directly bound to recombinant GST-PDZI′+II′ protein and produce DeltaF signal independently of the biotinylated peptide. The twenty selected compounds were thus tested in this assay to eliminate those giving false inhibition of the HTRF signals while inhibitors of Biotinylated peptide interaction with GST-PDZI′+II′ should not interfere in this assay.

[3] = target: T3, GST-PDZI′+II′ (Grasp55 residues 1 to 208) (Mus musculus, UniProt Q99JX3); assay: HTRF measurement of interaction of biotinylated C-terminal peptides with GST-PDZI′+II′; conditions: biotinylated JAM-C peptide, GST-PDZI′+II′
T3 construct: and 1 to 208 corresponding respectively to the PDZI′, PDZII′ and PDZI′+II′ constructs; made in house; host or cells: bacteria Rosetta
Method: as §1, §2, §3

EC50 of competition of the HTRF signal [1]: low micromolar range
increase in EC50 with GST-PDZI′ versus GST-PDZI′+II′ and GST-GraspFL [2]: twenty fold increase in EC50
EC50 of competition of the HTRF signal [3]: low micromolar range
Sequence: NYIRTSEEGDFRHKSSFVI [unlabelled peptide]
